Where no end group is shown, it is not given here.
Experiments:
IRAP (AT4 receptor) = biological target: T1, IRAP (AT4 receptor) (Homo sapiens, UniProt Q9UIQ6); experiment: ^125I-Nle^1 Ang IV binding to membranes of HEK 293 cells transfected with IRAP cDNA; conditions: IRAP cDNA transfected cells
T1 construct: expressed in transfected cells; host or cells: HEK 293 cells (membranes)
Text: The amount of radioligand bound to the membranes from HEK 293 cells transfected with IRAP cDNA was expressed as a percentage of radioligand bound to membranes from HEK 293 cells transfected with control plasmids.

AT4 receptor [1] = biological target: T2, AT4 receptor (Bos taurus, UniProt F1N1Q8); experiment: AT4 radioreceptor assay, ^125I-Ang IV binding to bovine adrenal membranes
T2 construct: from tissue; host or cells: bovine adrenal gland membranes
T2 sequence (F1N1Q8 1-1022): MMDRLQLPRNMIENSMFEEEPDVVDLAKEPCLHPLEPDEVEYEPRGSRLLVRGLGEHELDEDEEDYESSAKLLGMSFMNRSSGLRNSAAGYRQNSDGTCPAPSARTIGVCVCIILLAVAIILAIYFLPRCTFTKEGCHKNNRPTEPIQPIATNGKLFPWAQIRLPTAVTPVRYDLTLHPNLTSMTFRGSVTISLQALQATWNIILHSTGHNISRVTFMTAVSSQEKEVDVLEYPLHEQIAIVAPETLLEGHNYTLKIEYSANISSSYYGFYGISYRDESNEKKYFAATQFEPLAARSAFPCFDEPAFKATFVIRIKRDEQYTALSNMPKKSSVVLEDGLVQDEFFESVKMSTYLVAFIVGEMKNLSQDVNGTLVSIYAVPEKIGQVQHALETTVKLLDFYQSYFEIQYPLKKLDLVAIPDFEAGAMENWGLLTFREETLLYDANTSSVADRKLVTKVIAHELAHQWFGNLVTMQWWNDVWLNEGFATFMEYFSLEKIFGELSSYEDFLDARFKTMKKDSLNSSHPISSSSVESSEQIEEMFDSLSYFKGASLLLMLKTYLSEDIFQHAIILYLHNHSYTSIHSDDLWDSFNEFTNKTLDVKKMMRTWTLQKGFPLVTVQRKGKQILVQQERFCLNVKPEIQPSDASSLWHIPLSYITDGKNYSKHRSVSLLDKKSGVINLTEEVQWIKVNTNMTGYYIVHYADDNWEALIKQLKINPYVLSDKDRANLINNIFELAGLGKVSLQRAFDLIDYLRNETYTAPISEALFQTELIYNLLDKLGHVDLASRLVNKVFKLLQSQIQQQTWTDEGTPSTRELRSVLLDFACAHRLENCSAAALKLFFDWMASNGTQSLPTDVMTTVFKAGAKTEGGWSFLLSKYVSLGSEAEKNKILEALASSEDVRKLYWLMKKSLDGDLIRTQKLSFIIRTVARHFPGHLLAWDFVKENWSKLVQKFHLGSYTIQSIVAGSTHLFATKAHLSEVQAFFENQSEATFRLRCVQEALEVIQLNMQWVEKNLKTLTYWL
Procedure: The AT4 radioreceptor assay was used to screen the sheep brain extracts for AT4 receptor modulatory activity. The membranes were prepared using bovine adrenal glands obtained from the abattoir. The adrenals were diced, homogenized in ice-cold hypotonic buffer (50 mM Tris, 5 mM EDTA, pH 7.4) and centrifuged for 10 min at 500 g. […] The resulting pellets were re-homogenized in hypotonic buffer. […] The samples were incubated for 2 h at 37° C., and the bound ligand was separated on Whatman GF/B glass fibre filters.

IRAP = biological target: T3, IRAP (Homo sapiens, UniProt Q9UIQ6); experiment: IRAP enzymatic activity, hydrolysis of L-leucine-β-naphthylamide (fluorescence); type: biochemical
T3 construct: expressed in transfected cells; host or cells: HEK 293T cells (solubilised membrane protein)
T3 sequence (Q9UIQ6 whole entry): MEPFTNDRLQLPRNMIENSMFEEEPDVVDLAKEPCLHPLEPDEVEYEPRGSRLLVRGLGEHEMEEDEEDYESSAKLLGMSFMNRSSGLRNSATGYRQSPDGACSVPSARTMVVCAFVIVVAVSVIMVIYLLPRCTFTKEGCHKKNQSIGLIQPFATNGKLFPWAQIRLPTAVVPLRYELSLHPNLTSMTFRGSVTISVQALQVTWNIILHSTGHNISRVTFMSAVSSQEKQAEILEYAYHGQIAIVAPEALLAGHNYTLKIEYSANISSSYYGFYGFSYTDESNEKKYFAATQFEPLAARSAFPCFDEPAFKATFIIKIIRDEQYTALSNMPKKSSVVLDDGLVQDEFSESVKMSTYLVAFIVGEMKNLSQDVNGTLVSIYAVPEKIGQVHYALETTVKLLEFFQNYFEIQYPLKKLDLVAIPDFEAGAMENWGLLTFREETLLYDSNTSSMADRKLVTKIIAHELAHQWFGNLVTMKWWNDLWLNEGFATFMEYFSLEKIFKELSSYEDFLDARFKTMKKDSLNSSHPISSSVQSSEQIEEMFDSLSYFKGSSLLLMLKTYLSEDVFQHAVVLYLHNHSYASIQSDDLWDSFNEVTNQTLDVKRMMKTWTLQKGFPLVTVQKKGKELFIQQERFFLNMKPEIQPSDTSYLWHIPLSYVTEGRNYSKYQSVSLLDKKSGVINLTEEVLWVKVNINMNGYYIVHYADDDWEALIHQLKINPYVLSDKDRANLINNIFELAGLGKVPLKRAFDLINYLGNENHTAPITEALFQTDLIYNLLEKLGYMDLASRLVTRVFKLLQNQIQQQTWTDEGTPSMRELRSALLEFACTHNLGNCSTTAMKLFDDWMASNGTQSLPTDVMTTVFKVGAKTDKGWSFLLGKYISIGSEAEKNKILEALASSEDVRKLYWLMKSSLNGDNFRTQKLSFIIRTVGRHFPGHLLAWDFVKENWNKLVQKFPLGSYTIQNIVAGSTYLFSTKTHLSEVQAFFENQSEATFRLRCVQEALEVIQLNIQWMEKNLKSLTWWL
Text: For example, Hek293 cells stably transfected with a eukaryotic expression vector expressing the AT4 receptor gene may be utilized. An example of this is the vector pcDNA-3 containing the cDNA encoding the full length AT4 receptor. Two assay systems are used, one for each spliced variant of the human AT4 receptor gene. The assay system involves the measurement of the rate of hydrolysis of L-leucyl β-naphthylamide by the AT4 receptor. The rate of hydrolysis by the transfected cells is followed by recording the increase in fluorescence (excitation at 340 nm, emission at 410 nm) using a purpose-designed fluorimeter. Test compounds are added to the assay system, and their effects on the hydrolysis of L-leucyl β-naphthylamide are a direct indicator of their modulation of AT4 receptor activity.
Crude membranes were prepared from HEK 293 cells stably transfected with pcDNA-3 containing the cDNA encoding the full length AT4 receptor/IRAP, using the same method as that described for bovine adrenal membranes. The membranes were solubilised in 50 mM Tris-HCl containing 1% Triton-X100 at 4° C. for 16 h. The IRAP enzymatic activity was determined by the hydrolysis of a synthetic substrate, L-leucine-β-naphthylamide, and monitored by the release of a fluorogenic product on a spectrophotometer set at excitation 340 nm and emission 410 nm. One hundred μM of the substrate was added to 10 μg of solubilised membranes, and the increase in fluorescence monitored for 10 min.
Samples were assayed 2-3 times in triplicate, except controls, which were performed 5 times in triplicate.

SK-N-MC cells = experiment: [^3H]-thymidine uptake in SK-N-MC cells; type: cell-based; conditions: Ang IV 10^−10-10^−7 M; LVVYPWTQRF 10^−10-10^−6 M
Procedure: NG108-15 and SK-N-MC cells were cultured in DMEM supplemented with 10% heat-inactivated FCS, 2% HAT supplement, and 100 U/ml penicillin/streptomycin. Cells were routinely used between passages 20 and 30.
Cells were plated at a density of 3×10^4 cells/well in 24 well Falcon plates that had been coated with 0.1 mg/ml poly-L-lysine hydrobromide. The cells were allowed to adhere overnight, and then serum deprived for 48 h before being treated with […] (SEQ ID NO:2) and/or Ang IV (10^−10 to 10^−6 M) for 24 h in medium with or without serum. Five hours before the end of the experiment 1 μCi of ^3H-thymidine was added to each well. At the completion of the incubation, cells were washed twice with 1 ml of PBS at 4° C., followed by 5% trichloroacetic acid at 4° C. for 30 min, which was aspirated before solubilizing the cells in 1 ml 0.25 M NaOH and 0.1% SDS for 30 min at 37° C. Samples were then collected into 5 ml of Ready Value scintillation fluid and ^3H measured in a liquid scintillation counter.

AT4 receptor [2] = conditions: Moeller et al, 1996; Zhang et al, 1999; cited from earlier work

T1 sequence (Q9UIQ6 whole entry): as above

For LVVYPWTQRF, the “binding of ^125I-Nle^1 angiotensin IV to IRAP sites inhibited by ligand” value (IRAP (AT4 receptor)) was “competitively inhibited”, the Ki (AT4 receptor [1]) was 1 to 5 nM and the Ki (IRAP) was 845 nM. For the same sequence, the “hydrolysis of L-leucine-β-naphthylamide by membranes containing IRAP” value (IRAP; 10 mM peptide) was “totally abolished”, the “type of inhibition of IRAP” value (IRAP; Lineweaver-Burk analysis) was “competitive inhibitors” and the “increase of [^3H]-thymidine uptake” value (SK-N-MC cells) was “up to 81 % above control levels”. The “affinity for AT4 receptor” value (AT4 receptor [2]) was “nanomolar affinity”.

Reference: patent publication US20050020519A1, “Modulation of insulin-regulated aminopeptidase (irap)/angiotensin iv (at4) receptor activity” (priority 2001, published 2005)
